Literature values as cited in patent US10441535B2, “Nutraceutical confectionary composition containing caffeine and L-theanine” (NeuroGum, LLC, priority 2015, dated 2019).

Details: human, in vivo

For N-Ethyl-L-glutamine [L-theanine], the elimination half-life is listed as 1 to 2 h.
